Experimental data reported in US8192962B2, “Processes for detecting toxic substances” (Daikin Industries, Ltd., priority 2001, dated 2012).

Test system: Genes belonging to other category
Test: DNA chip mRNA expression in yeast, genes belonging to other category (Table 9)
Type: cell-based, Saccharomyces cerevisiae S288C
Procedure: Yeast (Saccharomyces cerevisiae S288C (α SUC2mal mel gap2 CUP1)) were incubated at 25° C. on YPD medium (yeast extract 1%, polypepton 2%, glucose 2%). One of toxic chemical substances was added to the cells at logarithmic growth phase, and the cells were further incubated for two hours. Cells were cultured without any chemical substance in the same condition, and were used as control. Concentrations of the chemical substances were defined to inhibit the growth of the yeast but not lead to death.
After completion of the incubation, the culture was centrifuged to collect the cells. To the cells, sodium acetate buffer (50 mM sodium acetate, 10 mM EDTA, 1% SDS) was added, and the mixture was shaken at 65° C. for five minutes, followed by returning to room temperature, and obtaining the supernatant, of which the procedures were repeated two times. To the supernatant, ½ amount of a solution of phenol/chloroform was added, and the mixture was centrifuged to give a supernatant, which was added with an equal amount of chloroform, and the mixture was centrifuged to give a supernatant. To the supernatant, an equal amount of isopropanol containing 0.3 M sodium acetate was added, and the mixture was allowed to stand at room temperature for 30 minutes, after which the mixture was centrifuged to give a sediment of the whole RNAs. Seventy % ethanol was added to the sediment, and the mixture was again centrifuged to give a sediment, which was then dried and dissolved in water. mRNA was isolated from the whole RNAs as followings. In view of the fact that a poly A chain is attached to the 3′ terminus of mRNA, a polynucleotide having a poly T structure which was immobilized on the surface of latex beads was used to trap the mRNA, and then the mRNA was washed and eluted with spine column (Oligotex-dT30<Super>mRNA Purification Kit, Takara). Reverse transcription of the mRNA was conducted with a reverse transcriptase (Super Script II Reverse Transcriptase; catalogue No. 18064-014, GibcoBRL) using fluorescence-labeled nucleotides to give cDNAs that were introduced with Cy3-dUTP or Cy5-dUTP during the reverse transcription.
The labeled cDNAs were dissolved in TE buffer (10mM Tris-HCl/1 mM EDTA, pH8.0), and the solution was dropped on the DNA chip containing the whole genes of yeast (DNA Chip Research Inc. Japan) so that the cDNAs were hybridized on the DNA chip at 65° C. for over 12 hours. The fluoresces intensity of the DNA chip was read with a scanner, and the ratio relative to the fluorescence intensity resulting from the absence of chemical substance was estimated as the following, which is shown in Tables 1 to 9: […]

Substance: manganese ethylenebis(dithiocarbamate) [(8)]
- The level of expressed mRNA in the presence of chemical substance/The level of expressed mRNA in the absence of chemical substance (yeast gene YAR010C): 1.3
- The level of expressed mRNA in the presence of chemical substance/The level of expressed mRNA in the absence of chemical substance (yeast gene YBL005W-A): 1.0
- The level of expressed mRNA in the presence of chemical substance/The level of expressed mRNA in the absence of chemical substance (yeast gene YBL041W): 1.7
- The level of expressed mRNA in the presence of chemical substance/The level of expressed mRNA in the absence of chemical substance (yeast gene YBL043W): 2.1
- The level of expressed mRNA in the presence of chemical substance/The level of expressed mRNA in the absence of chemical substance (yeast gene YBL078C): 1.6
- The level of expressed mRNA in the presence of chemical substance/The level of expressed mRNA in the absence of chemical substance (yeast gene YBR214W): 0.7
- The level of expressed mRNA in the presence of chemical substance/The level of expressed mRNA in the absence of chemical substance (yeast gene YCL020W): 1.7
- The level of expressed mRNA in the presence of chemical substance/The level of expressed mRNA in the absence of chemical substance (yeast gene YCL027W): 0.6
- The level of expressed mRNA in the presence of chemical substance/The level of expressed mRNA in the absence of chemical substance (yeast gene YCR004C): 1.2
- The level of expressed mRNA in the presence of chemical substance/The level of expressed mRNA in the absence of chemical substance (yeast gene YCR071C): 0.9
- The level of expressed mRNA in the presence of chemical substance/The level of expressed mRNA in the absence of chemical substance (yeast gene YCR088W): 0.5
- The level of expressed mRNA in the presence of chemical substance/The level of expressed mRNA in the absence of chemical substance (yeast gene YDL008W): 1.2
- The level of expressed mRNA in the presence of chemical substance/The level of expressed mRNA in the absence of chemical substance (yeast gene YDL238C): 5.8
- The level of expressed mRNA in the presence of chemical substance/The level of expressed mRNA in the absence of chemical substance (yeast gene YDR055W): 1.6
- The level of expressed mRNA in the presence of chemical substance/The level of expressed mRNA in the absence of chemical substance (yeast gene YDR084C): 0.7
- The level of expressed mRNA in the presence of chemical substance/The level of expressed mRNA in the absence of chemical substance (yeast gene YDR085C): 2.0
- The level of expressed mRNA in the presence of chemical substance/The level of expressed mRNA in the absence of chemical substance (yeast gene YDR104C): 1.3
- The level of expressed mRNA in the presence of chemical substance/The level of expressed mRNA in the absence of chemical substance (yeast gene YDR115W): 1.3
- The level of expressed mRNA in the presence of chemical substance/The level of expressed mRNA in the absence of chemical substance (yeast gene YDR259C): 1.4
- The level of expressed mRNA in the presence of chemical substance/The level of expressed mRNA in the absence of chemical substance (yeast gene YDR315C): 1.4
- The level of expressed mRNA in the presence of chemical substance/The level of expressed mRNA in the absence of chemical substance (yeast gene YDR358W): 1.2
- The level of expressed mRNA in the presence of chemical substance/The level of expressed mRNA in the absence of chemical substance (yeast gene YDR388W): 0.8
- The level of expressed mRNA in the presence of chemical substance/The level of expressed mRNA in the absence of chemical substance (yeast gene YDR432W): 0.5
- The level of expressed mRNA in the presence of chemical substance/The level of expressed mRNA in the absence of chemical substance (yeast gene YDR481C): 1.0
- The level of expressed mRNA in the presence of chemical substance/The level of expressed mRNA in the absence of chemical substance (yeast gene YDR510W): 1.5
- The level of expressed mRNA in the presence of chemical substance/The level of expressed mRNA in the absence of chemical substance (yeast gene YEL042W): 0.7
- The level of expressed mRNA in the presence of chemical substance/The level of expressed mRNA in the absence of chemical substance (yeast gene YEL066W): 1.4
- The level of expressed mRNA in the presence of chemical substance/The level of expressed mRNA in the absence of chemical substance (yeast gene YER039C): 0.7
- The level of expressed mRNA in the presence of chemical substance/The level of expressed mRNA in the absence of chemical substance (yeast gene YER107C): 0.8
- The level of expressed mRNA in the presence of chemical substance/The level of expressed mRNA in the absence of chemical substance (yeast gene YER130C): 1.2
- The level of expressed mRNA in the presence of chemical substance/The level of expressed mRNA in the absence of chemical substance (yeast gene YFL022C): 0.8
- The level of expressed mRNA in the presence of chemical substance/The level of expressed mRNA in the absence of chemical substance (yeast gene YFL028C): 1.5
- The level of expressed mRNA in the presence of chemical substance/The level of expressed mRNA in the absence of chemical substance (yeast gene YFL043C): 1.0
- The level of expressed mRNA in the presence of chemical substance/The level of expressed mRNA in the absence of chemical substance (yeast gene YGL158W): 1.3
- The level of expressed mRNA in the presence of chemical substance/The level of expressed mRNA in the absence of chemical substance (yeast gene YGL229C): 0.7
- The level of expressed mRNA in the presence of chemical substance/The level of expressed mRNA in the absence of chemical substance (yeast gene YGR136W): 1.3
- The level of expressed mRNA in the presence of chemical substance/The level of expressed mRNA in the absence of chemical substance (yeast gene YGR189C): 1.0
- The level of expressed mRNA in the presence of chemical substance/The level of expressed mRNA in the absence of chemical substance (yeast gene YGR213C): 2.0
- The level of expressed mRNA in the presence of chemical substance/The level of expressed mRNA in the absence of chemical substance (yeast gene YGR257C): 1.0
- The level of expressed mRNA in the presence of chemical substance/The level of expressed mRNA in the absence of chemical substance (yeast gene YHR004C): 0.9
- The level of expressed mRNA in the presence of chemical substance/The level of expressed mRNA in the absence of chemical substance (yeast gene YHR071W): 1.7
- The level of expressed mRNA in the presence of chemical substance/The level of expressed mRNA in the absence of chemical substance (yeast gene YHR139C): 1.3
- The level of expressed mRNA in the presence of chemical substance/The level of expressed mRNA in the absence of chemical substance (yeast gene YHR142W): 1.3
- The level of expressed mRNA in the presence of chemical substance/The level of expressed mRNA in the absence of chemical substance (yeast gene YIL123W): 0.6
- The level of expressed mRNA in the presence of chemical substance/The level of expressed mRNA in the absence of chemical substance (yeast gene YIL140W): 0.7
- The level of expressed mRNA in the presence of chemical substance/The level of expressed mRNA in the absence of chemical substance (yeast gene YJL073W): 1.0
- The level of expressed mRNA in the presence of chemical substance/The level of expressed mRNA in the absence of chemical substance (yeast gene YJL089W): 1.1
- The level of expressed mRNA in the presence of chemical substance/The level of expressed mRNA in the absence of chemical substance (yeast gene YJL116C): 1.8
- The level of expressed mRNA in the presence of chemical substance/The level of expressed mRNA in the absence of chemical substance (yeast gene YJR004C): 0.4
- The level of expressed mRNA in the presence of chemical substance/The level of expressed mRNA in the absence of chemical substance (yeast gene YJR086W): 1.1
